Assay results published in US20140187556A1, “ANTI-AMYLOID COMPOUNDS AND METHODS” (Treventis Corporation, priority 2011, published 2014).

These molecules were tested against T1, Aβ40 (Homo sapiens, UniProt P05067) (assay: Thioflavin T (ThT) Aβ aggregation assay). Settings: 20 μM Aβ40, 37 degrees C.
T1 construct: pre-treated Aβ40 (40 μM in 20 mM Tris, pH 7.4)
T1 sequence (P05067 672-711 limits assumed): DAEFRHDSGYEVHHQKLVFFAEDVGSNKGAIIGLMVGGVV
Assay type: biochemical
Description: Aβ40 (1.0 mg) was pre-treated in a 1.5 mL microfuge tube with HFIP (1 mL) and sonicated for 20 min to disassemble any pre-formed Aβ aggregates. The HFIP was removed with a stream of argon and the Aβ dissolved in Tris base (5.8 mL, 20 mM, pH ˜10). The pH was adjusted to 7.4 with concentrated HCl (−10 μL) and the solution filtered using a syringe filter (0.2 μm) before being used.
The kinetic ThT assay for Aβ aggregation is similar to that of Chalifour et al (Chalifour et al, 2003, J. Biol. Chem. 278:34874-81). Briefly, pre-treated Aβ40 (40 μM in 20 mM Tris, pH 7.4), was diluted with an equal volume of 8 μM ThT in Tris (20 mM, pH 7.4, 300 mM NaCl). Aliquots of Aβ/ThT (200 μL) were added to wells of a black polystyrene 96-well plate, followed by 2 μL of a compound in DMSO (variable concentration), or DMSO alone (controls). Incubations were performed in triplicate and were taken to contain 20 μM Aβ, various concentration of compound in 20 mM Tris, pH 7.4, 150 mM NaCl, 1% DMSO. Plates were covered with clear polystyrene lids and incubated at 37 degrees C. in a Tecan Genios microplate reader. Fluorescence readings (λex=450 nm, λem=480 nm) were taken every 15 min., after first shaking at high intensity for 15 s and allowing to settle for 10 s before each reading. Active compounds attenuated the increase in fluorescence over time that occurred in controls.
Work on NC(=O)c1cccc(-c2ccc([N+](=O)[O-])c(NCc3ccccc3)c2)c1 [TRV 1103, 3′-(benzylamino)-4′-nitrobiphenyl-3-carboxamide] yielded an IC50 of 10.5 ± 0.75 µM.
N#Cc1ccc(-c2cccc(C(=O)O)c2)cc1NCc1ccccc1 [TRV 1128, 3′-(benzylamino)-4′-cyanobiphenyl-3-carboxylic acid] showed an IC50 of over 50 µM.
In the case of CC(C)Nc1cc(F)cc(N2CCN(C(=O)c3ccccc3)CC2)c1 [TRV 1179, (4-(3-fluoro-5-(isopropylamino)phenyl)piperazin-1-yl)(phenyl)methanone], the IC50 is reported as over 50 µM.
In the case of CC(C)Nc1cc(N2CCN(C(=O)c3ccccc3)CC2)cc(F)c1C(F)(F)F [TRV 1176, (4-(3-fluoro-5-(isopropylamino)-4-(trifluoromethyl)phenyl)piperazin-1-yl)(phenyl)methanone], the IC50 is reported as over 50 µM.
Molecule CC(C)Nc1cc(N2CCN(C(=O)c3ccccc3)CC2)ccc1[N+](=O)[O-] [TRV 1144, (4-(3-(isopropylamino)-4-nitrophenyl)piperazin-1-yl)(phenyl)methanone] has an IC50 of over 10 µM.
Molecule O=[N+]([O-])c1ccc(-c2cccc(C(O)C(F)(F)F)c2)cc1N1CCCC1 (stereo not shown) [TRV 1155, 2,2,2-trifluoro-1-(4′-nitro-3′-(pyrrolidin-1-yl)-[1,1′-biphenyl]-3-yl)ethanol] has an IC50 of 6.65 ± 1.97 µM.
With O=C(c1ccccc1)N1CCN(c2ccc([N+](=O)[O-])c(NC3CCC3)c2)CC1 [TRV 1149, (4-(3-(cyclobutylamino)-4-nitrophenyl)piperazin-1-yl)(phenyl)methanone] the IC50 was over 10 µM.
Molecule CC(C)Nc1cc(N2CCN(C(=O)c3ccccc3)CC2)cc(C(F)(F)F)c1 [TRV 1169, (4-(3-(isopropylamino)-5-(trifluoromethyl)phenyl)piperazin-1-yl)(phenyl)methanone] has an IC50 of over 50 µM.
Molecule CCNC(=O)c1cccc(-c2ccc([N+](=O)[O-])c(NCc3ccccc3)c2)c1 [TRV 1116, 3′-(benzylamino)-N-ethyl-4′-nitrobiphenyl-3-carboxamide] has an IC50 of over 50 µM.
O=C(c1ccccc1)N1CCN(c2ccc(-n3cnnn3)c(N3CCCC3)c2)CC1 [TRV 1164, phenyl(4-(3-(pyrrolidin-1-yl)-4-(1H-tetrazol-1-yl)phenyl)piperazin-1-yl)methanone] was tested, and the IC50 was over 50 µM.
CCN(CC)c1cc(N2CCN(C(=O)c3ccccc3)CC2)ccc1[N+](=O)[O-] [TRV 1135, (4-(3-(diethylamino)-4-nitrophenyl)piperazin-1-yl)(phenyl)methanone] gave an IC50 of 12.4 ± 0.62 µM.
For O=C(c1ccccc1)N1CCN(c2cc(N3CCCC3)cc(C(F)(F)F)c2)CC1 [TRV 1163, phenyl(4-(3-(pyrrolidin-1-yl)-5-(trifluoromethyl)phenyl)piperazin-1-yl)methanone], the IC50 was over 50 µM.
In the case of CNC(=O)c1cccc(-c2ccc([N+](=O)[O-])c(NCc3ccccc3)c2)c1 [TRV 1101, 3′-(benzylamino)-N-methyl-4′-nitrobiphenyl-3-carboxamide], the IC50 is reported as over 50 µM.
O=[N+]([O-])c1ccc(-c2ccccc2-c2nnn[nH]2)cc1NCc1ccccc1 [TRV 1125, N-benzyl-4-nitro-2′-(1H-tetrazol-5-yl)-[1,1′-biphenyl]-3-amine] gave an IC50 of 12.5 ± 2.79 µM.
In the case of CC(C)Nc1cc(N2CCN(C(=O)c3ccccc3)CC2)ccc1C#N [TRV 1168, 4-(4-benzoylpiperazin-1-yl)-2-(isopropylamino)benzonitrile], the IC50 is reported as over 50 µM.
Molecule O=C(c1ccccc1)N1CCN(c2ccc(OC(F)(F)F)c(NCc3ccccc3)c2)CC1 [TRV 1185, (4-(3-(benzylamino)-4-(trifluoromethoxy)phenyl)piperazin-1-yl)(phenyl)methanone] has an IC50 of over 50 µM.
Molecule CC(C)Nc1cc(N2CCN(C(=O)c3ccccc3)CC2)ccc1F [TRV 1160, (4-(4-fluoro-3-(isopropylamino)phenyl)piperazin-1-yl)(phenyl)methanone] has an IC50 of over 50 µM.
Work on O=C(c1ccccc1)N1CCN(c2cc(F)c(C(F)(F)F)c(N3CCCC3)c2)CC1 [TRV 1175, (4-(3-fluoro-5-(pyrrolidin-1-yl)-4-(trifluoromethyl)phenyl)piperazin-1-yl)(phenyl)methanone] yielded an IC50 of over 50 µM.
Molecule CC(O)c1cccc(-c2ccc(F)c(N3CCCC3)c2)c1 (stereo not shown) [TRV 1246] has an IC50 of under 50 µM.
In the case of O=C(c1ccccc1)N1CCN(c2ccc(Cl)c(Nc3ccccc3)c2)CC1 [TRV 1094, (4-(4-chloro-3-(phenylamino)phenyl)piperazin-1-yl)(phenyl)methanone], the IC50 is reported as 31.6 ± 4.8 µM.
N#Cc1cccc(-c2ccc([N+](=O)[O-])c(NCc3ccccc3)c2)c1 [TRV 1136, 3′-(benzylamino)-4′-nitrobiphenyl-3-carbonitrile] showed an IC50 of over 50 µM.
CC(C)Nc1cc(N2CCN(C(=O)c3ccccc3)CC2)ccc1C(F)(F)F [TRV 1166, (4-(3-(isopropylamino)-4-(trifluoromethyl)phenyl)piperazin-1-yl)(phenyl)methanone] gave an IC50 of over 50 µM.
O=C(c1ccccc1)N1CCN(c2ccc([N+](=O)[O-])c(N3CCCCC3)c2)CC1 [TRV 1137, (4-(4-nitro-3-(piperidin-1-yl)phenyl)piperazin-1-yl)(phenyl)methanone] was tested, and the IC50 was about 10 µM.
Work on CC(=O)c1cccc(-c2ccc([N+](=O)[O-])c(NCc3ccccc3)c2)c1 [TRV 1124, 1-(3′-(benzylamino)-4′-nitrobiphenyl-3-yl)ethanone] yielded an IC50 of 6.49 ± 2.5 µM.
In the case of CC(C)Nc1ccc(N2CCN(C(=O)c3ccccc3)CC2)cc1N1CCCC1 [TRV 1157, (4-(4-(isopropyl amino)-3-(pyrrolidin-1-yl)phenyl)piperazin-1-yl)(phenyl)methanone], the IC50 is reported as over 50 µM.
Work on CC(=O)N1CCN(C(=O)c2cccc(-c3ccc([N+](=O)[O-])c(NCc4ccccc4)c3)c2)CC1 [TRV 1114, 1-(4-(3′-(benzylamino)-4′-nitrobiphenylcarbonyl)piperazin-1-yl)ethanone] yielded an IC50 of over 50 µM.
With CC(O)c1cccc(-c2ccc(C#N)c(N3CCCC3)c2)c1 (stereo not shown) [TRV 1248] the IC50 was about 50 µM.
Work on CN(C)C(=O)C1CCCN(c2ccc([N+](=O)[O-])c(NCc3ccccc3)c2)C1 (stereo not shown) [TRV 1132, 1-(3-(benzylamino)-4-nitrophenyl)-N,N-dimethylpiperidine-3-carboxamide] yielded an IC50 of 11.5 ± 0.29 µM.
O=C(c1cccc(-c2ccc([N+](=O)[O-])c(NCc3ccccc3)c2)c1)N1CCOCC1 [TRV 1113, (3′-(benzyl amino)-4′-nitrobiphenyl-3-yl)(morpholino)methanone] was tested, and the IC50 was over 50 µM.
In the case of O=C(c1ccccc1)N1CCN(c2ccc(S(=O)(=O)C(F)(F)F)c(NCc3ccccc3)c2)CC1 [TRV 1186, (4-(3-(benzylamino)-4-((trifluoromethyl)sulfonyl)phenyl)piperazin-1-yl)(phenyl)methanone], the IC50 is reported as over 50 µM.
In the case of O=C(c1ccccc1)N1CCN(c2cc(F)cc(N3CCCC3)c2)CC1 [TRV 1170, (4-(3-fluoro-5-(pyrrolidin-1-yl)phenyl)piperazin-1-yl)(phenyl)methanone], the IC50 is reported as over 50 µM.
Molecule N#Cc1ccc(N2CCN(C(=O)c3ccccc3)CC2)cc1N1CCCC1 [TRV 1167, 4-(4-benzoylpiperazin-1-yl)-2-(pyrrolidin-1-yl)benzonitrile] has an IC50 of over 50 µM.
Molecule O=C(c1ccccc1)N1CCN(c2ccc(OC(F)F)c(NCc3ccccc3)c2)CC1 [TRV 1184, (4-(3-(benzyl amino)-4-(difluoromethoxy)phenyl)piperazin-1-yl)(phenyl)methanone] has an IC50 of over 50 µM.
Molecule CC1CN(c2ccc([N+](=O)[O-])c(Nc3ccccc3)c2)CCN1C(=O)c1ccccc1 (stereo not shown) [TRV 1099, (2-methyl-4-(4-nitro-3-(phenylamino)phenyl)piperazin-1-yl)(phenyl)methanone] has an IC50 of 6.12 ± 2.78 µM.
CN(c1cc(N2CCN(C(=O)c3ccccc3)CC2)ccc1[N+](=O)[O-])C1CCC1 [TRV 1154, (4-(3-(cyclobutyl(methyl)amino)-4-nitrophenyl)piperazin-1-yl)(phenyl)methanone] gave an IC50 of 11.6 ± 1.24 µM.
CC(C)N(C)c1cc(N2CCN(C(=O)c3ccccc3)CC2)ccc1[N+](=O)[O-] [TRV 1152, (4-(3-(isopropyl(methyl)amino)-4-nitrophenyl)piperazin-1-yl)(phenyl)methanone] gave an IC50 of 16.9 ± 0.52 µM.
O=C(c1ccccc1)N1CCN(c2ccc(F)c(NCc3ccccc3)c2)CC1 [TRV 1159, (4-(3-(benzylamino)-4-fluorophenyl)piperazin-1-yl)(phenyl)methanone] was tested, and the IC50 was over 50 µM.
Molecule O=C(C1CCCN(c2ccc([N+](=O)[O-])c(NCc3ccccc3)c2)C1)N1CCCC1 (stereo not shown) [TRV 1131, (1-(3-(benzylamino)-4-nitrophenyl)piperidin-3-yl)(pyrrolidin-1-yl)methanone] has an IC50 of 27.8 ± 27.6 µM.
O=C(c1ccccc1)N1CCN(c2ccc([N+](=O)[O-])c(N3CCOCC3)c2)CC1 [TRV 1138, (4-(3-morpholino-4-nitrophenyl)piperazin-1-yl)(phenyl)methanone] showed an IC50 of over 10 µM.
Molecule O=C(c1ccccc1)N1CCN(c2ccc([N+](=O)[O-])c(N3CCC(N4CCCC4)CC3)c2)CC1 [TRV 1139, (4-(4-nitro-3-(4-(pyrrolidin-1-yl)piperidin-1-yl)phenyl)piperazin-1-yl)(phenyl)methanone] has an IC50 of about 10 µM.
O=C(c1ccccc1)N1CCN(c2cc(F)c(F)c(NCc3ccccc3)c2)CC1 [TRV 1190, (4-(3-(benzylamino)-4,5-difluorophenyl)piperazin-1-yl)(phenyl)methanone] was tested, and the IC50 was about 50 µM.

Same assay, conditions: 50 μM compound
With CC(O)c1cccc(-c2ccc(F)c(N3CCCC3)c2)c1 (stereo not shown) [TRV 1246] the inhibition at 50 µM was 56.8%.
For CC(O)c1cccc(-c2ccc(C#N)c(N3CCCC3)c2)c1 (stereo not shown) [TRV 1248], the inhibition at 50 µM was 47.9%.
